Non-standard residues stand in square brackets, D forms with d. No end group written: not given here. Hyp = O=C(O)[C@@H]1C[C@@H](O)CN1

The test system of the experiment is C2C12 myoblast. Kind of experiment: Myoblast differentiation promotion test in myoblast culture (Western blotting of differentiation markers). The format is cell-based, mouse. The settings on record: Western blot band, numerical value in relation to 100 = control, 100 μM final concentration, eight days exposure. The procedure:
Myoblast Differentiation Promotion Test in Myoblast Culture
For culture of C2C12 myoblast derived from mouse, a D-MEM culture medium containing 10% FBS, 100 units/mL sodium penicillin G, 100 μg/mL streptomycin and 1.0 g/L NaHCO3 (D-MEM culture medium (10% FBS, +P/S)) was used. Culture was conducted in an incubator at 37° C. containing 95% air and 5% CO2. In the condition that C2C12 myoblast was 90% confluent, the culture medium was replaced by a D-MEM culture medium including 2% horse serum (HS), 100 units/mL sodium penicillin G, 100 μg/mL streptomycin and 1.0 g/L NaHCO3 (D-MEM culture medium (2% HS+P/S)), and then the D-MEM culture medium (2% HS+P/S) replacement was repeated every two days to lead to differentiation into myotube cells. The peptides of Examples 1 to 21 and Comparative Examples 1 to 3 were added in a final concentration of 100 μM to the culture medium every the culture medium replacement, and cells were continuously exposed thereto for eight days.
The Western blotting method was conducted in the following procedure. The cells used for protein measurement were washed twice with PBS at the time of recovery, and the cells were scraped with a cell scraper and transferred to a tube, and centrifuged at 4° C. and at 250×g for 3 minutes, and then PBS was completely removed. For each tube, the cells were suspended in 100 μL of a buffer (20 mM HEPES-NaOH (pH 7.5), 0.5% NP-40, 1 mM EDTA, 100 μM AEBSF, 1 μg/mL aprotinin, 10 μg/mL leupeptin, 1 mM DTT, 1 mM sodium ortho-vanadate, 10 mM sodium fluoride, 10 μM ammonium molybdate, 10 mM sodium pyrophosphate), and then crushed under ice cooling for 5 seconds three times for each sample by using an ultrasonic disperser, followed by quantification of the amount of a protein. Quantification of the amount of a protein was conducted according to the method of Bradford using bovine serum albumin as a standard protein. After end of SDS-PAGE, a blotting device was used to conduct electro-transferring at 1.5 mA per 1 cm^2 of a membrane for 1 hour on a PVDF membrane equilibrated with methanol and subjected to pre-wetting by infiltration with a transfer buffer (48 mM Tris, 39 mM glycine). After end of the transferring, the PVDF membrane was blocked with PBS (−) containing 6% skim milk for 1 hour. A primary antibody was diluted in the following manner, and an antigen-antibody reaction was conducted overnight at 4° C. A peroxidase-conjugated secondary antibody against each primary antibody was diluted in PBS (−) containing 6% skim milk in the ratios: mouse anti-myosin heavy chain monoclonal antibody (MF20) culture supernatant 1/2000, mouse anti-tropomyosin monoclonal antibody (CH1) culture supernatant 1/2000, rabbit anti-GAPDH polyclonal antibody 1/3000, peroxidase-conjugated anti-mouse IgG 1/5000, and peroxidase-conjugated anti-rabbit IgG 1/2000, allowed to react for 30 minutes, and washed three times with PBS (−) for 10 minutes. Then the membrane was immersed in Immobilon™ Western Chemiluminescent HRP Substrate for 3 minutes, and detected by LAS-4000 (GE Healthcare, Buckinghamshire, UK). A band was converted into numbers by imageJ, and expressed in a numerical value in relation to 100 which was the value of the control.
In turn, Gly-Pro-[Hyp] [Example 5] displayed a Myosin heavy chain of 217 and a Tropomyosin of 165.

Pro-Ala [Example 6] displayed a Myosin heavy chain of 131 and a Tropomyosin of 169.

Regarding Ala-[Hyp]-Gly [Example 1], the Myosin heavy chain was determined as 218 and the Tropomyosin stood at 191.

Leu-Hyp [Example 3] gave a Myosin heavy chain of 143 and a Tropomyosin of 195.

Substance [Hyp]-Gly-Pro [Example 2] came in with a Myosin heavy chain of 166 and a Tropomyosin of 181.

As to Glu-Hyp [Example 4], the Myosin heavy chain amounted to 214 and the Tropomyosin was found to be 140.

Turning to “Ala-Hyp [Comparative Example 1, reference compound]”, the Myosin heavy chain stood at 62 and the Tropomyosin is reported as 44.

In the case of Pro-Hyp [Example 8], the Myosin heavy chain worked out at 278 and the Tropomyosin amounted to 307.

As to Hyp-Gly [Example 7], the Myosin heavy chain is 334 and the Tropomyosin came out at 419.

The record behind these values is US10632177B2, “Myoblast differentiation promoter” (NITTA GELATIN INC., priority 2012, dated 2020).
